Publication PMC6469224, “Tuning the properties of tris(hydroxypyridinone) ligands: efficient ^68Ga chelators for PET imaging” (Dalton Transactions (Cambridge, England : 2003), 2019)
Where two headings read alike, the source gives them in different places.

Experiments:
[1] = Spectrophotometric titration, acid dissociation constants; assay type: physicochemical
Experimental: (§1) The THP^Me and THP^H acid dissociation and conditional formation constants for their Ga^3+ and Fe^3+ complexes were investigated by spectrophotometric measurements. pKa and pM values (defined as –log[M^3+] when [ligand]total = 10 μM, [metal]total = 1 μM and pH = 7.4) are reported in Table 2. A full list of the measured conditional formation constants is provided in the ESI (Tables S1–S3 ^†), together with speciation plots calculated for the pH range of the titration. The pKa values for THP chelators are better described as intrinsic protonation constants since they represent the average pKa values of the three hydroxypyridinone units, which could not be distinguished by UV spectrophotometric measurements.[45] The first intrinsic pKa is attributed to the carbonyl group of the HP unit, and the second to the adjacent hydroxyl group. For THP^H a third intrinsic protonation constant, pKa3, associated with deprotonation of the N^1–H group in the pyridinone ring, exists outside the pH range used. The value of pKa3 was estimated to be 13 from the spectral change of the [Fe(THP^H)] complex in the pH 10–12.5 range. The measured protonation constants for THP^H are lower than those measured for deferiprone, but slightly higher than those for THP^Me (that is, THP^Me is slightly more acidic than THP^H).
The automated titration system consists of a Metrohm 765 Dosimat autoburette, a Mettler Toledo MP230 pH meter with SENTEK pH electrode (P11), and an HP 8453 UV-visible spectrophotometer with a Hellem quartz flow cuvette, with circulation driven by a Gilson Mini-plus #3 pump (speed capability 20 mL min^–1). A potassium chloride electrolyte solution (0.1 M) was used to maintain the ionic strength. The temperature of the test solutions was maintained in a thermostatic jacketed titration vessel at 25 ± 0.1 °C, using a Fisherbrand Isotemp water bath. The pH electrodes were calibrated using the software GLEE[47] with data obtained by titrating a volumetric standard HCl (0.1 M) in KCl (0.1 M) with KOH (0.1 M) under an atmosphere of argon. Analytical grade reagent materials were used in the preparation of all solutions. The solution under investigation was stirred vigorously during the experiment. For pKa determinations, a cuvette path length of 10 mm was used, while for metal stability constants determinations, a cuvette path length of 50 mm was used (experimental concentration was ca. 40 μM for iron complexes and ca. 10 μM for gallium complexes). All instruments were interfaced to a computer and controlled by an in-house program.
The automated titration adopted the following strategy: the pH of a solution was increased in increments of 0.1 pH unit by the addition of potassium hydroxide solution (0.1 M) from the autoburette. The pH readings were judged stable if they varied by less than 0.01 pH unit after a pre-set incubation period. […] The cycle was repeated until the predefined end point pH value was achieved. Titration data were analysed with the HypSpec2014 program[48],[49] […] The fitting spectra range for iron complexes was 400–700 nm while that for gallium complexes was 250–350 nm. pH values higher than 11.3 (outside the pH range in which electrode measurements are considered accurate) were neglected and re-calculated from the added KOH quantity (using “no pH” mode within the HypSpec2014 program). […] Metal affinities of compounds in this study were determined in competition with the metal hydrolysis species in a solution at a high pH (titrated up to pH 12.5). […]

[2] = cited from earlier work
[3] = cited from earlier work; remark: listed apart in the source
mouse = test: In vivo ^68Ga scavenging: acetate-buffered ^68Ga injected, then chelator; PET/CT and urine HPLC; conditions: female BALB/c mouse, THPMe at 45 minutes
Experimental: The ability of THP^H to scavenge gallium in vivo was also investigated. […] This scavenging ability, shared with THP^Me (ESI, Fig. S8 ^†), reflects the rapid complexation kinetics and the extraordinary ability to transchelate gallium (which is known to bind rapidly and almost completely to transferrin when intravenously injected[44]) rapidly in the biological milieu.
All in vivo experiments were carried out in accordance with British Home Office regulations governing animal experimentation and complied with guidelines on responsibility in the use of animals in bioscience research of the U.K. Research Councils and Medical Research Charities, under U.K. Home Office project and personal licences. […] Respiration rate and bed temperature were monitored throughout. […] All reconstructed datasets were analysed using VivoQuant 1.21 software (inviCRO), which enables the co-registration of PET and CT images and the delineation of regions of interest (ROIs) for quantification of activity in specific organs. […] Urine was collected and analysed by reversed-phase HPLC (method 3).
An E&Z generator was eluted with 5 mL of pure HCl 0.1 M (Fluka analytical) in five 1 mL fractions and their activity measured by a Capintec radionuclide dose calibrator. […]
Quantitative radiolabelling was obtained for all examined concentrations. […]

[4] = Spectrophotometric determination of conditional formation constants, Fe^3+ complexes; assay type: binding
Experimental: as §1
(§2) The automated titration system consists of a Metrohm 765 Dosimat autoburette, a Mettler Toledo MP230 pH meter with SENTEK pH electrode (P11), and an HP 8453 UV-visible spectrophotometer with a Hellem quartz flow cuvette, with circulation driven by a Gilson Mini-plus #3 pump (speed capability 20 mL min^–1). A potassium chloride electrolyte solution (0.1 M) was used to maintain the ionic strength. The temperature of the test solutions was maintained in a thermostatic jacketed titration vessel at 25 ± 0.1 °C, using a Fisherbrand Isotemp water bath. […]
(§3) The automated titration adopted the following strategy: the pH of a solution was increased in increments of 0.1 pH unit by the addition of potassium hydroxide solution (0.1 M) from the autoburette. The pH readings were judged stable if they varied by less than 0.01 pH unit after a pre-set incubation period. […] Titration data were analysed with the HypSpec2014 program[48],[49] […] The fitting spectra range for iron complexes was 400–700 nm while that for gallium complexes was 250–350 nm. pH values higher than 11.3 (outside the pH range in which electrode measurements are considered accurate) were neglected and re-calculated from the added KOH quantity (using “no pH” mode within the HypSpec2014 program). […] Metal affinities of compounds in this study were determined in competition with the metal hydrolysis species in a solution at a high pH (titrated up to pH 12.5). […]

[5] = Spectrophotometric determination of conditional formation constants, Ga^3+ complexes; assay type: binding
Experimental: as §1, §2, §3

[6] = 0.1 M KCl electrolyte solution, intrinsic pKa for THP ligands (carbonyl group of HP unit), 25 °C, 0.1 M KCl, read-out: pKa1
[7] = M3+ + 2 L− ⇄ [ML2]+, repeated as control
[8] = M3+ + 3 L− ⇄ [ML3], repeated as control
[9] = M3+ + L− ⇄ [ML]2+, repeated as control
[10] = –log[M^3+] at [M]total = 1 μM, [L]total = 10 μM, pH = 7.4

## CC(=O)NC(CCC(=O)NCc1[nH]c(C)cc(=O)c1O)(CCC(=O)NCc1[nH]c(C)cc(=O)c1O)CCC(=O)NCc1[nH]c(C)cc(=O)c1O [THP^H]
[1]; [6]
  pKa: 3.2
[1]; 0.1 M KCl electrolyte solution, intrinsic pKa for THP ligands (hydroxyl group), 25 °C, 0.1 M KCl, read-out: pKa2
  pKa: 9.4
[1]; 0.1 M KCl electrolyte solution, pH 10, N^1–H deprotonation, estimated from spectral change of [Fe(THP^H)] in pH 10–12.5, read-out: pKa3
  pKa: ~13

## O=C(O)CN(CCN(CC(=O)O)Cc1ccccc1O)Cc1ccccc1O [HBED, N,N-bis(2-hydroxybenzyl)ethylenediamine-N,N-diacetic acid]
[2]
  log KFe: 36.74
[3]
  log KGa: 37.73

## CC(=O)NC(CCC(=O)NCc1c(O)c(=O)cc(C)n1C)(CCC(=O)NCc1c(O)c(=O)cc(C)n1C)CCC(=O)NCc1c(O)c(=O)cc(C)n1C [THP^Me, tris(1,6-dimethyl-3-hydroxypyridin-4-one)]
mouse
  In vivo ^68Ga binding and blood clearance after injection of the chelator: able to bind 68Ga in vivo

## Cc1c(O)c(=O)ccn1C [Deferiprone]
[4]; [7]
  Log β [FeL]2+: 27.5
[4]; [8]
  Log β [FeL3]: 37.5
[4]; [9]
  Log β [FeL]2+: 15.0
[4]; [10]
  pFe: 20.8
[5]; [7]
  Log β [GaL]2+: 27.0
[5]; [8]
  Log β [GaL3]: 37.4
[5]; [9]
  Log β [GaL]2+: 14.4
[5]; [10]
  pGa: 20.7
[1]; [6]
  pKa: 3.5
[1]; intrinsic pKa for THP ligands (hydroxyl group), 25 °C, 0.1 M KCl, read-out: pKa2
  pKa: 9.8
